Structures can show the parent of a compound that is named as a salt.
What was measured:
[1] = Solubility of HXM in pure triglycerides; format: physicochemical; conditions: organic solvent or mixture
[2] = cited from earlier work
[3] = Compatibility of lipid triglycerides with HXM solubilization and phospholipid emulsion
humans = conditions: in vivo, iv; cited from earlier work

CN(C)c1nc(N(C)C)nc(N(C)C)n1 [HXM, 2,4,6-Tris(dimethylamino)-s-triazine]
solubility [1]: > 50000 µg/mL
solubility of the free drug in saline solution ([2]; saline solution, Wickes et al. 1985): 70 µg/mL
solubility of the free drug in water ([2]; water, Ames et al. 1982): 200 µg/mL

CCCCCCCC/C=C\CCCCCCCC(=O)OCC(COC(=O)CCCCCCC/C=C\CCCCCCCC)OC(=O)CCCCCCC/C=C\CCCCCCCC [triolein]
ability of triglyceride to solubilize HXM [3]: ineffective at solubilizing HXM

CN(C)c1nc(N(C)C)nc(N(C)C)n1 [Gentisate salt of HXM]
local irritation (humans): severe local irritation

Source: patent US4963363A, “Phospholipid delivery vehicle for aqueous-insoluble active ingredients” (priority 1989, dated 1990)
